Reference: patent US7317038B2, “Nerve regeneration promoters containing semaphorin inhibitor as the active ingredient” (Dainippon Sumitomo Pharma Co., Ltd., priority 2000, dated 2008)
Entries after “also recorded” stand apart in the source; their conditions may differ.

Assays:
[1] = target: T1, mouse semaphorin 3A (Sema3A) (Mus musculus, UniProt O08665); test: Suppression of growth cone collapse activity of Sema3A (chick embryo dorsal root ganglions); assay type: cell-based; settings: for inhibition of growth cone collapse activity of Sema3A (in words): chick embryo dorsal root ganglions; for IC50: E7 chick embryo dorsal root ganglions, 2 units/ml Sema3A added 1 hour after compound, concentration where collapse rate = (A+B)/2, read-out: IC50 of inhibition of the growth cone collapse activity of Sema3A (converted)
T1 sequence (O08665 21-772): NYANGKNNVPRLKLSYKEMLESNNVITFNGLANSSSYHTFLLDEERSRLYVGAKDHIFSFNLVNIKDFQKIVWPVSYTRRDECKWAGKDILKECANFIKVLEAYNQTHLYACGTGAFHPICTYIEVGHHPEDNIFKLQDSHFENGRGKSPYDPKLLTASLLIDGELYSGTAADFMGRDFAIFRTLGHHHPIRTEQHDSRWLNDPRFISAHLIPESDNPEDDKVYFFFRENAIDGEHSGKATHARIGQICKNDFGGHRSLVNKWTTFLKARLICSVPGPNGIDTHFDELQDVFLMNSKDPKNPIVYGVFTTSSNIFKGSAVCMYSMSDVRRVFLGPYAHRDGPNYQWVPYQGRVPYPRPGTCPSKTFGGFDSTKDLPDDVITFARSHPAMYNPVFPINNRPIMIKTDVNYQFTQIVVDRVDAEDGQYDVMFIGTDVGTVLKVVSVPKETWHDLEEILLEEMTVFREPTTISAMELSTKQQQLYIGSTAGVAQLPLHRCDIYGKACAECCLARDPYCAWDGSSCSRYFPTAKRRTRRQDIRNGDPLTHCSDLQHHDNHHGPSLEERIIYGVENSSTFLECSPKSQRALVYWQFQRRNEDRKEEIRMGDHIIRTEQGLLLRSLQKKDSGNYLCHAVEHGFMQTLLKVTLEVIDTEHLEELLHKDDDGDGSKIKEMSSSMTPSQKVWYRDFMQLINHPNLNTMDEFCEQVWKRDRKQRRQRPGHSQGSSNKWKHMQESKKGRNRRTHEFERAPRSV
Experimental: A 96-well plate (Sumitomo Bakelite Co., ltd. ) pre-coated with polylysine was further coated with laminine (20 μg/ml of laminine, for 1 hour at room temperature). Each well was added with 100 μl of medium (F12 medium containing 10% bovine fetal serum, 20 ng/ml of NGF, 100 units/ml of penicillin and 100 μg/ml of streptomycin) which media were then inoculated with dorsal root nerve ganglions excised from E7 (Embryonic day 7) chick embryo and were cultured for 16 to 20 hours under 5% CO2 and at 37° C. Subsequently, the object compounds were added to media at various concentrations and 2 units/ml of mouse semaphorin 3A (Sema3A) was added after cultivating for 1 hour. The cultures were further incubated for another 1 hour. Glutaraldehyde was quickly added therein after said 1 hour to make the final concentration 1%. The cultures were then left for 15 minutes at room temperature so that the tissue sections were fixed, and collapse rates of the growth cones were microscopically observed. A well with no addition of Sema3A was made the control.
The longitudinal and lateral axes in the figures represent the collapse rate of growth cones and the concentration of compounds, respectively. ●▪▴ show the results when Sema3A was added after the addition of the compounds and ◯[…]Δ show those when Sema3A was not added. Further, IC50 (μg/ml) of the inhibitors were determined by the method comprising: calculating the collapse rate of growth cone (A) % of the negative controls (neither compounds nor Sema3a was added); subsequently calculate the collapse rate of growth cone (B) % of the positive controls (compounds were not added but Sema3a was added); and the concentration was chosen for each compound from the chart where the collapse rate of growth cone met (A+B)/2(%), which was made IC50 level. The followings are the results.

[2] = target: T2, Sema3A (Mus musculus, UniProt O08665); test: Collagen gel co-culture: suppression of neurite outgrowth inhibitory action of Sema3A; assay type: cell-based; parameters: key to suppression of neurite outgrowth inhibitory activity of Sema3A, score / inhibition of neurite outgrowth-inhibitory action of Sema3A, score: neurites outgrew in a complete concentric circular shape just like for the control groups where Sema3A-non-expressing COS7 cells were used, it was scored +++ (a strong inhibitory effect for Sema3A); outgrowth was found almost in a concentric circular shape accompanied with a little suppression of the outgrowth toward the direction of Sema3A-expressing COS cells, it was scored ++; outgrowth toward the direction of Sema3A-expressing COS cells is fairly suppressed to present a crescent shape, it was scored +; outgrowth toward the direction of Sema3A-expressing COS cells was not found at all (no inhibitory effect for Sema3A), it was scored −; settings: for suppression of neurite outgrowth inhibitory activity of Sema3A, score: Example 5; for inhibition of neurite outgrowth-inhibitory action of Sema3A, score: 2 μg/ml compound, Example 16; for persistent inhibitory action to Sema3A (neurite outgrowth toward Sema3A-expressing COS7 cell clump): collagen gel co-culture, 2 days
T2 construct: expressed in transfected cells; host or cells: COS7
T2 sequence (O08665 21-772): T1 sequence (O08665 21-772)
Experimental: Whether the object compounds (SPF-3059-1, M162, A721) have persistent inhibitory action to Sema3A was analyzed by the collagen gel co-culture method (Neuroprotocols 4, 116, 1994) using Sema3A-expressing COS7 cell clumps and 7- or 8-day-old chick embryo dorsal root ganglions. The Sema3A-expressing COS7 cell clumps were generated as follows. 1 μg of Sema3A-expression plasmid was introduced into COS7 cells (100000 cells/35 mm culture plate), which were cultured overnight, with the FuGENE6 transfection reagent (Roche). 2.5 hours after the starting of the transfection, the COS7 cells were collected by trypsinization and centrifugation, and re-suspended in a medium of 200 μl. 20 μl of the cell suspension was placed on the lid of the culture plate (inside) and the lid was turned over, and then the suspension was cultivated for 20 hours (hanging drop culture) (Cell 78, 425, 1994). When the culture was over, aggregated COS7 cells (clump) were collected and trimmed to a diameter of 0.5 mm. The Sema3A-expressing COS7 cell clump and the above-mentioned dorsal root ganglions were placed in parallel at a distance of 0.5 to 1 mm in a 0.2% collagen gel which was then cultivated in a medium containing the aforementioned compounds at various concentrations for 2 days at 37° C. under 5% CO2. Glutaraldehyde was quickly added therein to make the final concentration 1%. The cultures were then left for 1 hour at room temperature so that the tissues were fixed, and the neurite outgrowth was microscopically observed. The results are found in FIG. 4.
When a medium not containing a subject compound was used, neurites were unable to grow towards the COS7 cell clump with the high concentration of Sema3A and grew only to the opposite direction.
In a similar way as in Example 4, suppression of the neurite outgrowth inhibitory activity was analyzed for the compounds, SPF-3059-1, SPF-3059-2 and SPF-3059-5. When the neurites outgrew in a complete concentric circular shape just like for the control groups where Sema3A-non-expressing COS7 cells were used, it was scored +++ (a strong inhibitory effect for Sema3A). When the outgrowth was found almost in a concentric circular shape accompanied with a little suppression of the outgrowth toward the direction of Sema3A-expressing COS cells, it was scored ++. […] When the outgrowth toward the direction of Sema3A-expressing COS cells was not found at all (no inhibitory effect for Sema3A), it was scored −.

[3] = tested on: COS7 cells; test: Effect on cell proliferation (MTT); assay type: cell-based; settings: Chlorocebus aethiops, COS-7, 48 h, two days, read-out: IC50, inhibitory rate for cell proliferation
Experimental: COS7 cells were seeded onto a 96-well plate (medium 100 μl/well) at 10000 cells per well. At the same time, SPF-3059-1 of various concentrations was added and the cells were cultivated for two days in the presence of 5% CO2 at 37° C. Each well was then added with 10 μl of MTT solution at 5 mg/ml and cultured for another one hour. Subsequently, the culture supernatant was removed and formazan (an MTT derivative produced in viable cells) accumulated in the cells was dissolved by the addition of 50 μl DMSO and then the absorbance at 570 nm was measured to determine the proliferation of COS7 cells. […] The longitudinal and lateral axes in the figure show cell proliferation and the SPF-3059-1 concentration, respectively. Besides, the standard deviation (n=4) was added to each column.
The same effect on cell proliferation as in Example 9 was examined for the compounds, SPF-3059-1, SPF-3059-2 and SPF-3059-5. The wells with these compounds were served as samples, the wells with PBS were served as control, and the wells for which the experiment was carried out without adding the cells was served as blank. IC50 (μg/ml), the inhibitory rate for cell proliferation, was determined, which is calculated by the equation shown below. The inhibitory rate for cell proliferation (%)=(1−(absorbance of a sample well−absorbance of the blank well)/(absorbance of the control well−absorbance of the blank well))×100

[4] = Solubility; assay type: physicochemical

| SMILES | suppression of neurite outgrowth inhibitory activity of Sema3A, score ([2]; 0.5 μg/ml compound) | suppression of neurite outgrowth inhibitory activity of Sema3A, score ([2]; 1.0 μg/ml compound) | suppression of neurite outgrowth inhibitory activity of Sema3A, score ([2]; 2.0 μg/ml compound) | inhibition of neurite outgrowth-inhibitory action of Sema3A, score [2] | IC50 [1] [nM] | Solubility ([4]; methanol, DMSO) | Solubility ([4]; water, hexane) | inhibition of growth cone collapse activity of Sema3A (in words) [1] | persistent inhibitory action to Sema3A (neurite outgrowth toward Sema3A-expressing COS7 cell clump) [2] | IC50 [3] [µg/mL] |
| --- | --- | --- | --- | --- | --- | --- | --- | --- | --- | --- |
| CC(=O)c1cc2c(=O)c3cc(O)c(O)cc3oc2c(C(C)=O)c1-c1coc2cc(O)c(O)c(C(=O)O)c2c1=O [SPF-3059-2] | + | ++ | +++ | +++ |  |  |  | inhibit the growth cone collapse activities of Sema3A in a concentration-dependent manner; also recorded: potently inhibit semaphorin | persistently inhibited the action of Sema3A | > 100 |
| CC(=O)c1cc2c(=O)c3c(C(=O)O)c(O)c(O)cc3oc2c(C(C)=O)c1-c1coc2cc(O)c(O)c(C(=O)O)c2c1=O [SPF-3059-5] | + | ++ | ++ | ++ | < 173 |  |  | inhibit the growth cone collapse activities of Sema3A in a concentration-dependent manner; also recorded: potently inhibit semaphorin | persistently inhibited the action of Sema3A | > 300 |
| CC(=O)c1c(C)c(C(=O)C2COc3cc(O)c(O)cc3C2=O)cc2c(=O)c3c(C(=O)O)c(O)c(O)cc3oc12 (stereo not shown) [SPF-3059-9] |  |  |  |  | 187 | Soluble | Insoluble |  |  | > 100 |
| CC(=O)c1cc2c(=O)c3c(C(=O)O)c(O)c(O)cc3oc2c(C(C)=O)c1-c1coc2cc(O)c(O)cc2c1=O [SPF-3059-24] |  |  |  |  | 188 | Soluble | Insoluble |  |  | > 100 |
| CC(=O)c1cc2c(=O)c3c(C(=O)O)cc(O)cc3oc2c(C(C)=O)c1-c1coc2cc(O)c(O)cc2c1=O [SPF-3059-25] |  |  |  |  | 7750 | Soluble | Insoluble |  |  |  |
| CC(=O)c1cc2c(=O)c3cc(O)c(O)cc3oc2c(C(C)=O)c1-c1coc2cc(O)c(O)cc2c1=O [SPF-3059-26] |  |  |  |  | 409 | Soluble | Insoluble |  |  |  |
| CC(=O)c1cc(-c2c(C(C)=O)cc3c(=O)c4c(C(=O)O)c(O)c(O)cc4oc3c2C(C)=O)cc(C(=O)c2cc(O)c(O)cc2O)c1O [SPF-3059-27] |  |  |  |  | 778 | Soluble | Insoluble |  |  |  |

Continued, in another order:

| suppression of neurite outgrowth inhibitory activity of Sema3A, score ([2]; 0.5 μg/ml compound) | suppression of neurite outgrowth inhibitory activity of Sema3A, score ([2]; 1.0 μg/ml compound) | suppression of neurite outgrowth inhibitory activity of Sema3A, score ([2]; 2.0 μg/ml compound) | inhibition of neurite outgrowth-inhibitory action of Sema3A, score [2] | IC50 [1] [nM] | Solubility ([4]; methanol, DMSO) | Solubility ([4]; water, hexane) | SMILES | inhibition of growth cone collapse activity of Sema3A (in words) [1] | persistent inhibitory action to Sema3A (neurite outgrowth toward Sema3A-expressing COS7 cell clump) [2] | IC50 [3] [µg/mL] |
| --- | --- | --- | --- | --- | --- | --- | --- | --- | --- | --- |
|  |  |  |  | 3760 | Soluble | Insoluble | CC(=O)c1c(C)c(-c2cc(=O)c3c(C(=O)O)cc(O)cc3o2)cc2c(=O)c3c(C(=O)O)c(O)c(O)cc3oc12 [SPF-3059-28] |  |  |  |
|  |  |  |  | 182 | Soluble | Insoluble | COCc1c(-c2cc3c(=O)c4cc(O)c(O)cc4oc3c(C(C)=O)c2C)oc2cc(O)c(O)c(C(=O)O)c2c1=O [SPF-3059-29] |  |  | > 100 |
|  |  |  |  | 408 | Soluble | Insoluble | CC(=O)c1c(C)c(C(=O)C2COc3cc(O)c(O)cc3C2=O)cc2c(=O)c3cc(O)c(O)cc3oc12 (stereo not shown) [SPF-3059-30] |  |  | > 100 |
|  |  |  |  | 182 | Soluble | Insoluble | CC(=O)c1c(C)c(C(=O)C2(O)COc3cc(O)c(O)cc3C2=O)cc2c(=O)c3c(C(=O)O)c(O)c(O)cc3oc12 (stereo not shown) [SPF-3059-34] |  |  |  |
|  |  |  |  | 3660 | Soluble | Insoluble | COC(=O)c1cc(O)cc2oc(-c3cc4c(=O)c5c(C(=O)O)c(O)c(O)cc5oc4c(C(C)=O)c3C)cc(=O)c12 [SPF-3059-35] |  |  |  |
|  |  |  |  | 6680 | Soluble | Insoluble | CC(=O)c1cc(-c2c(C(C)=O)cc3c(=O)c4cc(O)c(O)cc4oc3c2C(C)=O)cc(C(=O)c2cc(O)c(O)cc2O)c1O [SPF-3059-36] |  |  |  |
|  |  |  |  | < 124 | Soluble | Insoluble | CC(=O)c1c(C)c(-c2oc3cc(O)c(O)c(C(=O)O)c3c(=O)c2Cc2c(C)oc3c(c2=O)COc2cc(O)c(O)cc2-3)cc2c(=O)c3c(C(=O)O)c(O)c(O)cc3oc12 [SPF-3059-37] |  |  |  |
|  |  |  |  | 182 | Soluble | Insoluble | CC(=O)c1c(C)c(-c2cc(=O)c3c(C(=O)O)c(O)c(O)cc3o2)cc2c(=O)c3c(C(=O)O)c(O)c(O)cc3oc12 [SPF-3059-39] |  |  |  |
